For orientation: IC50 means the concentration at which inhibition is half-maximal.

The test system of test [1] is A375. The test can be described thus: CellTiter-Glo proliferation and viability assay. In kind it is cell-based. Conditions: Homo sapiens, A-375, parental A375 B-Raf V600E cells, comparison with A375res. (In general: In ATP-based viability assays light output follows the ATP content of the culture.)
Test [2] concerns A375res cells. Nature of the test: CellTiter-Glo proliferation and viability assay in vemurafenib-resistant cells. In kind it is cell-based, human.

Molecules are shown by their SMILES.

Turning to `CCCS(=O)(=O)Nc1ccc(F)c(C(=O)c2c[nH]c3ncc(-c4ccc(Cl)cc4)cc23)c1F` [PLX4032, vemurafenib], the IC50 in test [1] was 252 nM; in test [2] (Homo sapiens, A375res cells), over 7000 nM. The “shift of IC50, A375res versus A375” value in test [2] was about 30 fold.
